# Assay results as given in patent US3963706A, “Sulphamoylphenyl-imidazolidinones” (Ed. Geistlich Sohne A.G. fur Chemische Industrie, priority 1972, dated 1976).
# System: Grand Mal
# Experiment: Electro shock test, rat
# Format: in vivo
# Details: not given
# Source text: (§1) In general, the majority of the available antiepileptic drugs are active against either Grand Mal or Petit Mal epilepsy but not against both forms.
# (§2) As mentioned above, the compounds according to the present invention show interesting activity against both Grand Mal and Petit Mal forms of epilepsy. This activity is indicated respectively by the electro shock test and the Cardiazol shock test.
row,Compound,ED50 [mg/kg]
1,"NS(=O)(=O)c1ccc(N2CN(c3ccccc3)CC2=O)c(F)c1 [Example 2, 1-Phenyl-3-(2-fluoro-4-sulphamoylphenyl)-imidazolidin-4-one]",10
2,"NS(=O)(=O)c1ccc(N2CN(c3ccccc3)CC2=O)c(Cl)c1 [Example 3, 1-Phenyl-3-(2-Chloro-4-sulphamoylphenyl)-imidazolidin-4-one]",5
3,"NS(=O)(=O)c1ccc(N2CN(c3ccccc3)CC2=O)c(Br)c1 [Example 5, 1-Phenyl-3-(2-bromo-4-sulphamoylphenyl)imidazolidin-4-one]",5 to 10
4,"NS(=O)(=O)c1ccc(N2C(=O)CN(c3ccccc3)C2=O)c(Cl)c1 [Example 8, 1-Phenyl-3-(2-chloro-4-sulphamoylphenyl)-hydantoin]",10
5,"CC1C(=O)N(c2ccc(S(N)(=O)=O)cc2Cl)CN1c1ccccc1 (stereo not drawn) [Example 18, 5-Methyl-1-phenyl-3-(2-chloro-4-sulphamoylphenyl)-imidazolidin-4-one]",10
6,"NS(=O)(=O)c1ccc(N2CN(C3CCCCC3)CC2=O)c(Cl)c1 [Example 19, 1-Cyclohexyl-3-(2-chloro-4-sulphamoylphenyl)-imidazolidin-4-one]",25

# System: Grand Mal
# Experiment: Electro shock test, mouse
# Format: in vivo
# Details: not given
# Source text: as §1, §2
row,Compound,ED50 [mg/kg]
1,"NS(=O)(=O)c1ccc(N2CN(c3ccccc3)CC2=O)c(F)c1 [Example 2, 1-Phenyl-3-(2-fluoro-4-sulphamoylphenyl)-imidazolidin-4-one]",10
2,"NS(=O)(=O)c1ccc(N2CN(c3ccccc3)CC2=O)c(Cl)c1 [Example 3, 1-Phenyl-3-(2-Chloro-4-sulphamoylphenyl)-imidazolidin-4-one]",1
3,"NS(=O)(=O)c1ccc(N2CN(c3ccccc3)CC2=O)c(Br)c1 [Example 5, 1-Phenyl-3-(2-bromo-4-sulphamoylphenyl)imidazolidin-4-one]",5
4,"NS(=O)(=O)c1ccc(N2C(=O)CN(c3ccccc3)C2=O)c(Cl)c1 [Example 8, 1-Phenyl-3-(2-chloro-4-sulphamoylphenyl)-hydantoin]",5
5,"NS(=O)(=O)c1ccc(N2CN(C3CCCCC3)CC2=O)c(Cl)c1 [Example 19, 1-Cyclohexyl-3-(2-chloro-4-sulphamoylphenyl)-imidazolidin-4-one]",10

# System: Petit Mal
# Experiment: Cardiazol shock test
# Format: in vivo
# Details: species not given
# Source text: as §1, §2
row,Compound,ED50 [mg/kg]
1,"NS(=O)(=O)c1ccc(N2CN(c3ccccc3)CC2=O)c(F)c1 [Example 2, 1-Phenyl-3-(2-fluoro-4-sulphamoylphenyl)-imidazolidin-4-one]",50
2,"NS(=O)(=O)c1ccc(N2CN(c3ccccc3)CC2=O)c(Cl)c1 [Example 3, 1-Phenyl-3-(2-Chloro-4-sulphamoylphenyl)-imidazolidin-4-one]",50
3,"NS(=O)(=O)c1ccc(N2CN(c3ccccc3)CC2=O)c(Br)c1 [Example 5, 1-Phenyl-3-(2-bromo-4-sulphamoylphenyl)imidazolidin-4-one]",50
4,"NS(=O)(=O)c1ccc(N2C(=O)CN(c3ccccc3)C2=O)c(Cl)c1 [Example 8, 1-Phenyl-3-(2-chloro-4-sulphamoylphenyl)-hydantoin]",100
5,"CC1C(=O)N(c2ccc(S(N)(=O)=O)cc2Cl)CN1c1ccccc1 (stereo not drawn) [Example 18, 5-Methyl-1-phenyl-3-(2-chloro-4-sulphamoylphenyl)-imidazolidin-4-one]",50
6,"NS(=O)(=O)c1ccc(N2CN(C3CCCCC3)CC2=O)c(Cl)c1 [Example 19, 1-Cyclohexyl-3-(2-chloro-4-sulphamoylphenyl)-imidazolidin-4-one]",200

# System: not given
# Experiment: not given
# Format: in vivo
# Details: up to 500 mg/kg
# Source text: It will be noted that the ratio of ED50 /LD50 for the compounds according to the invention is particularly favourable.
row,Compound,sedative activity
1,"NS(=O)(=O)c1ccc(N2CN(c3ccccc3)CC2=O)c(Cl)c1 [Example 3, 1-Phenyl-3-(2-Chloro-4-sulphamoylphenyl)-imidazolidin-4-one]",virtually no sedative activity
